Test results reported in ChEMBL document CHEMBL1201862, “PubChem BioAssay data set” (2004).
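Where inhibition never reached the appropriate level, the endpoint shown equals the highest concentration tested. Otherwise, values were interpolated linearly from a five-concentration, 48-hour dose response in 96-well plates. Here, GI50 denotes the concentration required for 50% inhibition of growth.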 Active and inactive are the calls of the source. Rule as the data show it: active = GI50 up to about 1.1 µM and inactive = higher.

Experiments:
Experiment in all cases: NCI-60 cell line screen, 48 h
MOLT-4 = system: MOLT-4
UACC-257 = system: UACC-257
A549 = system: A549
HCT-116 = system: HCT-116
U-251 = system: U-251
SF-295 = system: SF-295
K562 = system: K562
NCI-H522 = system: NCI-H522
IGROV-1 = system: IGROV-1
UACC-62 = system: UACC-62
RXF 393 = system: RXF 393
NCI-H226 = system: NCI-H226
COLO 205 = system: COLO 205
SK-MEL-5 = system: SK-MEL-5
OVCAR-4 = system: OVCAR-4
HL-60 = system: HL-60
LOX IMVI = system: LOX IMVI
SF-268 = system: SF-268
Malme-3M = system: Malme-3M
EKVX = system: EKVX

| SMILES | GI50 (MOLT-4) | GI50 (UACC-257) | GI50 (A549) | GI50 (HCT-116) | GI50 (U-251) | GI50 (SF-295) | GI50 (K562) | GI50 (NCI-H522) | GI50 (IGROV-1) | GI50 (UACC-62) | GI50 (RXF 393) | GI50 (NCI-H226) | GI50 (COLO 205) | GI50 (SK-MEL-5) | GI50 (OVCAR-4) | GI50 (HL-60) | GI50 (LOX IMVI) | GI50 (SF-268) | GI50 (Malme-3M) | GI50 (EKVX) |
| --- | --- | --- | --- | --- | --- | --- | --- | --- | --- | --- | --- | --- | --- | --- | --- | --- | --- | --- | --- | --- |
| Cn1cc(-c2csc(-c3cn(C)c4ccccc34)n2)c2ccccc21 | 14.1 µM (inactive) | 48.6 µM (inactive) | 37.6 µM (inactive) | 43.5 µM (inactive) | 32.4 µM (inactive) | 23.4 µM (inactive) | 11.2 µM (inactive) | 76.7 µM (inactive) | 27 µM (inactive) | 32.2 µM (inactive) | 14.1 µM (inactive) | 32.2 µM (inactive) | > 100 µM (inactive) | 26.9 µM (inactive) | 22.2 µM (inactive) | > 100 µM (inactive) | 36.4 µM (inactive) | 58.2 µM (inactive) | 19.1 µM (inactive) |  |
| COc1ccc(CCn2cncn2)cc1 | > 100 µM (inactive) | > 100 µM (inactive) | > 100 µM (inactive) | > 100 µM (inactive) | > 100 µM (inactive) | > 100 µM (inactive) | > 100 µM (inactive) | > 100 µM (inactive) | > 100 µM (inactive) | > 100 µM (inactive) |  | > 100 µM (inactive) | > 100 µM (inactive) | > 100 µM (inactive) | > 100 µM (inactive) | > 100 µM (inactive) |  | > 100 µM (inactive) |  | > 100 µM (inactive) |
| Cc1cc(C(=O)NCCN(C)C)c2nc3ccccc3cc2c1 | 0.381 µM (active) | 2.07 µM (inactive) | 0.867 µM (active) | 0.904 µM (active) | 2.69 µM (inactive) | 1.27 µM (inactive) | 2.44 µM (inactive) |  | 2.39 µM (inactive) | 1.52 µM (inactive) | 1.63 µM (inactive) | 1.17 µM (inactive) | 1.1 µM (active) | 1.64 µM (inactive) | 3.02 µM (inactive) | 0.871 µM (active) | 1.27 µM (inactive) | 2.77 µM (inactive) | 1.6 µM (inactive) | 0.594 µM (active) |
| CC1CC/C(=C\c2ccc(N(C)C)cc2)C2=C1C(c1ccc(N(C)C)cc1)NC(=S)N2 (configuration not stated) | > 100 µM (inactive) | > 100 µM (inactive) |  | > 100 µM (inactive) | > 100 µM (inactive) | > 100 µM (inactive) | > 100 µM (inactive) |  | > 100 µM (inactive) | > 100 µM (inactive) | > 100 µM (inactive) | > 100 µM (inactive) | > 100 µM (inactive) | > 100 µM (inactive) |  | > 100 µM (inactive) | > 100 µM (inactive) | > 100 µM (inactive) | > 100 µM (inactive) | > 100 µM (inactive) |
| CCN(CC)c1cccc2c1/C(=N/O)CCCC2 | 65.8 µM (inactive) | 65 µM (inactive) | > 100 µM (inactive) | 92.3 µM (inactive) | > 100 µM (inactive) | 83.8 µM (inactive) | 46.8 µM (inactive) | > 100 µM (inactive) |  | > 100 µM (inactive) | 90.2 µM (inactive) | > 100 µM (inactive) | > 100 µM (inactive) | 70.8 µM (inactive) | > 100 µM (inactive) | > 100 µM (inactive) | > 100 µM (inactive) | > 100 µM (inactive) | > 100 µM (inactive) | > 100 µM (inactive) |
| CC[C@H](O)[C@H](C)C=C1SCCCS1 | > 100 µM (inactive) | > 100 µM (inactive) | > 100 µM (inactive) | > 100 µM (inactive) | > 100 µM (inactive) | > 100 µM (inactive) | > 100 µM (inactive) | > 100 µM (inactive) | > 100 µM (inactive) | > 100 µM (inactive) | > 100 µM (inactive) | > 100 µM (inactive) | > 100 µM (inactive) | > 100 µM (inactive) | > 100 µM (inactive) | 34.8 µM (inactive) | > 100 µM (inactive) | > 100 µM (inactive) | > 100 µM (inactive) | > 100 µM (inactive) |
| CCOC(=O)c1cc(Br)c(-c2cc(C)no2)[nH]1 | 82 µM (inactive) | 28.1 µM (inactive) | 24.9 µM (inactive) | 27.3 µM (inactive) | 25.5 µM (inactive) | 31.1 µM (inactive) |  | 20.7 µM (inactive) |  | 35.2 µM (inactive) | 31 µM (inactive) | 31 µM (inactive) | 19.8 µM (inactive) | 21.7 µM (inactive) | 23.3 µM (inactive) | 24.7 µM (inactive) | 31.3 µM (inactive) | 31.6 µM (inactive) | 20.9 µM (inactive) | 34.8 µM (inactive) |
| O=C1C(Cl)N(c2ccccc2[N+](=O)[O-])C1c1c[nH]c2ccccc12 (configuration not stated) | > 100 µM (inactive) | > 100 µM (inactive) | > 100 µM (inactive) | > 100 µM (inactive) | > 100 µM (inactive) | > 100 µM (inactive) | > 100 µM (inactive) | > 100 µM (inactive) | > 100 µM (inactive) | > 100 µM (inactive) | > 100 µM (inactive) |  | > 100 µM (inactive) | > 100 µM (inactive) | > 100 µM (inactive) | > 100 µM (inactive) |  | > 100 µM (inactive) | 94.4 µM (inactive) | 83.6 µM (inactive) |
